Assay results from patent US12195427B2, “MASP-2 inhibitors and methods of use” (priority 2018, dated 2025).

Target: MASP-2 CCP2-SP (Homo sapiens (Human), UniProt O00187)
Test: MASP-2 co-crystallization, X-ray crystallography and structure analysis (H-bonds, van der Waals contacts);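 on Ligand-pharmacophore element distance, pharmacophore element C2: distance from averaged pharmacophore element to bound ligand; missing value means element absent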;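 on Ligand-pharmacophore element distance, pharmacophore element C3: distance from averaged pharmacophore element to bound ligand; missing value means element absent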;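 on Ligand-pharmacophore element distance, pharmacophore element C4: distance from averaged pharmacophore element to bound ligand; missing value means element absent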;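 on Ligand-pharmacophore element distance, pharmacophore element C5: distance from averaged pharmacophore element to bound ligand; missing value means element absent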
Parameters: van der Waals contact distance, MASP-2 HIS 483 atom CD2 / van der Waals contact distance, MASP-2 HIS 483 atom NE2 / van der Waals contact distance, SER 654 C to compound atom / van der Waals contact distance, SER 654 O to compound atom / van der Waals contact distance, TRP 655 C to compound atom / van der Waals contact distance, MASP-2 GLY 528 atom CA / van der Waals contact distance TRP 655 atom CZ3 / van der Waals contact distance TRP 655 atom N / van der Waals contact distance TRP 655 atom CE3 / van der Waals contact distance GLY 656 atom C / van der Waals contact distance GLY 656 atom CA / van der Waals contact distance GLY 656 atom O / van der Waals contact distance, MASP-2 TYR 607 atom CD1 / van der Waals contact distance, MASP-2 PRO 606 atom O / d(C3,CA1) / d(CA1,N1)2 / d(H4,O1) / d(H4,O2) / d(O1,O2) / d(CA1,O2) / d(CA6,O1) / d(CA6,O2) / d(CA1,C5) / d(O2,H3) / d(N2,C2) / d(CA5,N2) / d(N2,C4) / d(N2,C6) / d(N2,CA3) / d(N2,O3) / d(O4,H2): unit not given beside the values
Conditions: for Ligand-pharmacophore element distance, pharmacophore element C2 / Ligand-pharmacophore element distance, pharmacophore element C3 / Ligand-pharmacophore element distance, pharmacophore element C4 / Ligand-pharmacophore element distance, pharmacophore element C5 / Ligand-pharmacophore element distance, pharmacophore element C6 / Ligand-pharmacophore element distance, pharmacophore element C7 / Ligand-pharmacophore element distance, pharmacophore element CA1 / Ligand-pharmacophore element distance, pharmacophore element CA2 / Ligand-pharmacophore element distance, pharmacophore element CA3 / Ligand-pharmacophore element distance, pharmacophore element CA4 / Ligand-pharmacophore element distance, pharmacophore element CA5 / Ligand-pharmacophore element distance, pharmacophore element CA6: Table A4-1; for a(N1, CA1, O1) b): Methyl-amino-pyridine compounds; for Pharmacophore torsion angle a(O1, O2, N2, CA2): Table A7-2; for Pharmacophore protein distance to MET_658 (first MET_658 column) / Pharmacophore protein distance to MET_658 (second MET_658 column) / Pharmacophore protein distance to GLY_528 / Pharmacophore protein distance to PHE_529 / Pharmacophore protein distance to PRO_608 / Pharmacophore protein distance to SER_611 / Pharmacophore protein distance to TRP_655: Table A8-6, nearest protein atom in cell to the left; for Pharmacophore protein distance to MET_658 (first MET_658 column): 6th residue column; for Pharmacophore protein distance to MET_658 (second MET_658 column): 9th residue column; for Pharmacophore protein distance to TRP_655: pharmacophore elements C6, CA3, O3, H1
Description: This example illustrates the preparation of recombinant MASP-2 protein, based on UniProt O00187, human mannan-binding lectin serine protease 2. Expression constructs for human MASP-2 CCP2-SP and CCP2-SP-6HIS were generated for recombinant expression in E. coli cells.
Typically, crystallization hits were obtained by screening against […] 96-well crystallization reagent kits (GRAS6, GRAS2, Hampton Research; MORPHEUS, Molecular Dimensions; Wizard 1&2 Cryo, Rigaku Reagents) and crystal growth was inspected by optical microscopy. Crystals were used directly or further optimized for X-ray diffraction. Crystals were captured with cryogenic loops and dipped into liquid nitrogen directly or cryoprotected with a 20% glycerol in crystallization formulation before flash-cooling in liquid nitrogen.
Thereafter crystals are transferred once or twice for soaking within the crystallization solution containing the MASP-2 inhibitor.
Crystals were diffracted with synchrotron X-rays of […] and X-ray diffraction datasets were collected at beamlines SSRL BL9-2, BL14-1, BL12-2 as well as ALS sector 5 using Dectris Pilatus and Eiger detectors. Structures were determined by molecular replacement using portions of the structure 1Q3X as search models and partially refined with Buster 2.10.2 or Refmac 5.8. […] When multiple ligand poses were observed, for instance arising from multiple molecules in the asymmetric unit or refined dual poses within the same molecule, only one pose was selected and analyzed.
LigPlot+ calls these ‘nonbonded contacts’ or ‘hydrophobic contacts’. Despite the name, there are atom pairings that include possible H-bonds. Thus, in some instances, the Table A2 also contains H-bond interactions.

[1] = Table A5-1 pharmacophore: distance between elements, S2/S1 region
[2] = Table A5-2 pharmacophore distance, S3/S4 region
[3] = Table A7-1, between pharmacophore elements of the bound compound
[4] = between pharmacophore elements of the bound compound

Chain of MASP-2 CCP2-SP (O00187 445-686): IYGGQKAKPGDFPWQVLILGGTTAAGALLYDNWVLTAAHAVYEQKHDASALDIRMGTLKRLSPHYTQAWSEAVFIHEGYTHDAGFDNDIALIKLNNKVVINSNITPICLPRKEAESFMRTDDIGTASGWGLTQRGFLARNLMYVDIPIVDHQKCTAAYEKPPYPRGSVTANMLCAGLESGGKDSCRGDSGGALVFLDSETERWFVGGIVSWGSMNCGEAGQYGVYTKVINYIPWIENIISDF
Chain of MASP-2 CCP2-SP (O00187 364-432 partner): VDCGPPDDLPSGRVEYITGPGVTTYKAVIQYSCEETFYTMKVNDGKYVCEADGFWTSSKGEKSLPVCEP

C[C@H](NC(=O)[C@H](N)CCc1ccccc1)C(=O)NCc1ccc(N)nc1.Cl.Cl [1007_1]
Ligand-pharmacophore element distance, pharmacophore element C2: 0 | Ligand-pharmacophore element distance, pharmacophore element C3: 0 | Ligand-pharmacophore element distance, pharmacophore element C4: 0 | Ligand-pharmacophore element distance, pharmacophore element C5: 0 | Ligand-pharmacophore element distance, pharmacophore element C6: 0 | Ligand-pharmacophore element distance, pharmacophore element C7: 0 | Ligand-pharmacophore element distance, pharmacophore element CA1: 0.35 | Ligand-pharmacophore element distance, pharmacophore element CA2: 0.77 | Ligand-pharmacophore element distance, pharmacophore element CA3: 0 | Ligand-pharmacophore element distance, pharmacophore element CA4: 0 | Ligand-pharmacophore element distance, pharmacophore element CA5: 0 | Ligand-pharmacophore element distance, pharmacophore element CA6: 0 | d(CA1,N1)2 [1]: 1.38 | d(CA1,O1) [1]: 4.39 | d(CA1,O2) [1]: 3.86 | d(H4,O1) [1]: 3.59 | d(H4,O2) [1]: 2.73 | d(O1,O2) [1]: 3.55 | d(N2,CA2) [2]: 6.02 | d(O2,H3) [2]: 4.41 | d(O2,N2) [2]: 2.79 | a(CA1, O1, O2) (Table A6-1 pharmacophore angle): 107.37 | a(O1, O2, H4) (Table A6-1 pharmacophore angle): 113.31 | a(N1, CA1, O1) b) (Table A6-1 pharmacophore angle): 174.46 | a(O1, O2, H3) (Table A6-2 pharmacophore angle): 146.43 | a(O1, O2, N2) (Table A6-2 pharmacophore angle): 138.95 | a(O2, N2, CA2) (Table A6-2 pharmacophore angle): 154.71 | Pharmacophore torsion angle a(H4, O1, O2, H3) [3]: 50.93 | Pharmacophore torsion angle a(H4, O1, O2, N2) [3]: 137.94 | Pharmacophore torsion angle a(N1, CA1, O1, H4) [3]: 39.07 | Pharmacophore torsion angle a(O1, H4, O2, CA1) [3]: −94.99 | Pharmacophore torsion angle a(O1, O2, N2, CA2) [4]: 128.23 | Pharmacophore protein distance to MET_658 (first MET_658 column): 2.61 | Pharmacophore protein distance to MET_658 (second MET_658 column): 3.25 | Pharmacophore protein distance to GLY_528: 3.76 | Pharmacophore protein distance to PHE_529: 3.15 | Pharmacophore protein distance to PRO_608: 3.15 | Pharmacophore protein distance to SER_611: 2.06 | Pharmacophore protein distance to TRP_655: 3.70

C[C@H](NC(=O)[C@H](N)CCc1ccccc1)C(=O)NCc1ccc(N)nc1.Cl.Cl [1007_2]
Ligand-pharmacophore element distance, pharmacophore element C2: 0 | Ligand-pharmacophore element distance, pharmacophore element C3: 0 | Ligand-pharmacophore element distance, pharmacophore element C4: 0 | Ligand-pharmacophore element distance, pharmacophore element C5: 0 | Ligand-pharmacophore element distance, pharmacophore element C6: 0 | Ligand-pharmacophore element distance, pharmacophore element C7: 0 | Ligand-pharmacophore element distance, pharmacophore element CA1: 0.59 | Ligand-pharmacophore element distance, pharmacophore element CA2: 0.86 | Ligand-pharmacophore element distance, pharmacophore element CA3: 0 | Ligand-pharmacophore element distance, pharmacophore element CA4: 0 | Ligand-pharmacophore element distance, pharmacophore element CA5: 0 | Ligand-pharmacophore element distance, pharmacophore element CA6: 0 | d(CA1,N1)2 [1]: 1.38 | d(CA1,O1) [1]: 4.52 | d(CA1,O2) [1]: 4.00 | d(H4,O1) [1]: 3.69 | d(H4,O2) [1]: 2.76 | d(O1,O2) [1]: 3.63 | d(N2,CA2) [2]: 6.11 | d(O2,H3) [2]: 4.67 | d(O2,N2) [2]: 2.86 | a(CA1, O1, O2) (Table A6-1 pharmacophore angle): 107.55 | a(O1, O2, H4) (Table A6-1 pharmacophore angle): 113.36 | a(N1, CA1, O1) b) (Table A6-1 pharmacophore angle): 174.22 | a(O1, O2, H3) (Table A6-2 pharmacophore angle): 145.74 | a(O1, O2, N2) (Table A6-2 pharmacophore angle): 133.10 | a(O2, N2, CA2) (Table A6-2 pharmacophore angle): 153.46 | Pharmacophore torsion angle a(H4, O1, O2, H3) [3]: 47.32 | Pharmacophore torsion angle a(H4, O1, O2, N2) [3]: 126.25 | Pharmacophore torsion angle a(N1, CA1, O1, H4) [3]: 48.80 | Pharmacophore torsion angle a(O1, H4, O2, CA1) [3]: −94.30 | Pharmacophore torsion angle a(O1, O2, N2, CA2) [4]: 131.44 | Pharmacophore protein distance to MET_658 (first MET_658 column): 2.59 | Pharmacophore protein distance to MET_658 (second MET_658 column): 3.37 | Pharmacophore protein distance to GLY_528: 3.72 | Pharmacophore protein distance to PHE_529: 3.20 | Pharmacophore protein distance to PRO_608: 3.12 | Pharmacophore protein distance to SER_611: 2.21 | Pharmacophore protein distance to TRP_655: 3.60

C[C@H](NC(=O)[C@H](N)CCCc1ccccc1)C(=O)NCc1ccc(C(=N)N)cc1.Cl.Cl [1042_1]
Ligand-pharmacophore element distance, pharmacophore element C2: 1.81 | Ligand-pharmacophore element distance, pharmacophore element C3: 0 | Ligand-pharmacophore element distance, pharmacophore element C4: 0 | Ligand-pharmacophore element distance, pharmacophore element C5: 0 | Ligand-pharmacophore element distance, pharmacophore element C6: 0 | Ligand-pharmacophore element distance, pharmacophore element C7: 0 | Ligand-pharmacophore element distance, pharmacophore element CA1: 0.87 | Ligand-pharmacophore element distance, pharmacophore element CA2: 0.48 | Ligand-pharmacophore element distance, pharmacophore element CA3: 0 | Ligand-pharmacophore element distance, pharmacophore element CA4: 0 | Ligand-pharmacophore element distance, pharmacophore element CA5: 0 | Ligand-pharmacophore element distance, pharmacophore element CA6: 0 | Ligand-pharmacophore element distance, pharmacophore element H1 (Table A4-2, element H1): 0 | Ligand-pharmacophore element distance, pharmacophore element H2 (Table A4-2, element H2): 0 | Ligand-pharmacophore element distance, pharmacophore element H3 (Table A4-2, element H3): 5.4 | Ligand-pharmacophore element distance, pharmacophore element H4 (Table A4-2, element H4): 3.08 | Ligand-pharmacophore element distance, pharmacophore element N1 (Table A4-2, element N1): 1.3 | Ligand-pharmacophore element distance, pharmacophore element N2 (Table A4-2, element N2): 0.56 | Ligand-pharmacophore element distance, pharmacophore element O1 (Table A4-2, element O1): 2.71 | Ligand-pharmacophore element distance, pharmacophore element O2 (Table A4-2, element O2): 0.67 | Ligand-pharmacophore element distance, pharmacophore element O3 (Table A4-2, element O3): 0 | Ligand-pharmacophore element distance, pharmacophore element O4 (Table A4-2, element O4): 0 | d(CA1,N1) [1]: 3.58 | d(CA1,O1) [1]: 3.98 | d(CA1,O2) [1]: 4.13 | d(H4,O1) [1]: 3.35 | d(H4,O2) [1]: 3.67 | d(O1,O2) [1]: 3.40 | d(N2,C2) [2]: 3.42 | d(N2,CA2) [2]: 6.20 | d(O2,H3) [2]: 5.43 | d(O2,N2) [2]: 2.64 | a(CA1, O1, O2) (Table A6-1 pharmacophore angle): 117.21 | a(O1, O2, H4) (Table A6-1 pharmacophore angle): 122.15 | A(N1, CA1, O1) a) (Table A6-1 pharmacophore angle, all compounds with protonatable center N1 except Methyl-amino-pyridine): 158.11 | a(O1, O2, H3) (Table A6-2 pharmacophore angle): 149.96 | a(O1, O2, N2) (Table A6-2 pharmacophore angle): 170.80 | a(O2, N2, C2) (Table A6-2 pharmacophore angle): 140.47 | a(O2, N2, CA2) (Table A6-2 pharmacophore angle): 155.50 | Pharmacophore torsion angle a(H4, O1, O2, H3) [3]: −19.99 | Pharmacophore torsion angle a(H4, O1, O2, N2) [3]: 68.67 | Pharmacophore torsion angle a(N1, CA1, O2, H4) [3]: 9.10 | Pharmacophore torsion angle a(O1, H4, O2, CA1) [3]: −160.50 | Pharmacophore torsion angle a(O1, O2, N2, C2) [3]: 115.48 | Pharmacophore torsion angle a(O1, O2, N2, CA2) [4]: 136.01 | Pharmacophore protein distance to MET_658 (first MET_658 column): 2.06 | Pharmacophore protein distance to MET_658 (second MET_658 column): 3.40 | Pharmacophore protein distance to GLY_528: 4.67 | Pharmacophore protein distance to PHE_529: 3.84 | Pharmacophore protein distance to PRO_608: 3.46 | Pharmacophore protein distance to SER_611: 2.14 | Pharmacophore protein distance to TRP_655: 3.28
